From patent publication US5043332A, “Novel 11β-substituted -19-nor-steriods” (priority 1981, dated 1991)

System: thymocytes of surrenalectomized rats
Test: Antiglucocorticoidal activity, incorporation of tritiated uridine in thymocytes
Assay type: cell-based
Conditions: for % inhibition of effect of Dexamethasone (symbol) / inhibition at 1 µM: 5 × 10^-8 M dexamethasone + test product 10^-6 M; for inhibition at 0.1 µM / inhibition at 0.01 µM / inhibition at 1 µM: Rattus norvegicus, Thymocyte, read-out: % inhibition of effect of Dexamethasone; for inhibition at 0.1 µM: 5 × 10^-8 M dexamethasone + test product 10^-7 M; for inhibition at 0.01 µM: 5 × 10^-8 M dexamethasone + test product 10^-8 M
Experimental: III. Antiglucocorticoidal Activity
The test used was that of Dausse et al [Molecular Pharmacology, Vol. 13 (1977), p. 948-955] entitled "The relationship between glucocorticoid structure and effects upon thymocytes" for […] thymocytes. The thymocytes of surrenalectomized rats were incubated at 37° C. for 3 hours in a nutritive medium containing 5×10^-8 M of dexamethasone in the presence or absence of the test compound at different concentrations. Tritiated uridine was added and incubation was continued for one hour. The incubates were cooled and treated with a 5% trifluoroacetic acid solution and the mixture was filtered with Whatman GF/A paper. The filter was washed 3 times with a 5% trifluoroacetic acid solution and retained radioactivity on the filter was determined.

| SMILES | % inhibition of effect of Dexamethasone (symbol) | inhibition at 0.1 µM | inhibition at 0.01 µM | inhibition at 1 µM | effect on incorporation of tritiated uridine (in words) (glucocorticoid alone) |
| --- | --- | --- | --- | --- | --- |
| CC#C[C@]1(O)CC[C@H]2[C@@H]3CCC4=Cc5oncc5CC4=C3[C@@H](c3ccc(N(C)C)cc3)C[C@@]21C [Example 7, 11β-(4-dimethylaminophenyl)-17α-(prop-1-ynyl)-isoxazolo[4,5-b]-Δ^4,9-estradiene-17β-ol] | * (A dose of 10^-6 M inhibited the effect of dexamethasone totally) | 27% | 0% |  |  |
| CC#C[C@]1(O)CC[C@H]2[C@@H]3CCC4=CC(=O)C(=COC(C)=O)CC4=C3[C@@H](c3ccc(N(C)C)cc3)C[C@@]21C [Example 3, 2-(acetyloxymethylene)-11β-(4-dimethylaminophenyl)-17α-(prop-1-ynyl)-Δ^4,9-estradiene-17β-ol-3-one] |  | 0% | 0% | 60% |  |
| CC#C[C@]1(O)CC[C@H]2[C@@H]3CCc4cc(O)ccc4[C@H]3[C@@H](c3ccc(N(C)C)cc3)C[C@@]21C [2 (17 OH), 11β-(4-dimethylaminophenyl)-17α-(prop-1-ynyl)-Δ^1,3,5(10) -estratriene-3,17β-diol] | * (A dose of 10^-6 M inhibited the effect of dexamethasone totally) | 91% | 41% |  |  |
| C[C@@H]1C[C@H]2[C@@H]3CCC4=CC(=O)C=C[C@]4(C)[C@@]3(F)[C@@H](O)C[C@]2(C)[C@@]1(O)C(=O)CO [dexamethasone, reference compound] |  |  |  |  | provoked a lessening of incorporation of tritiated uridine |
| C/C=C/[C@]1(O)CC[C@H]2[C@@H]3CCC4=C(CCC(=O)C4)[C@H]3[C@@H](c3cccc(OC)c3)C[C@@]21C [6 (17α propenyle), 11β-(3-methoxyphenyl)-17α-(E)-(prop-1-enyl)-Δ^5(10) -estrene-17β-ol-3-one] |  | 0% | 0% | 56% |  |
| CC#C[C@]1(O)CC[C@H]2[C@@H]3CCC4=CC(=O)C(=CN5CCOCC5)CC4=C3[C@@H](c3ccc(N(C)C)cc3)C[C@@]21C [Example 4, 2-(4-morpholinylmethylene)-11β-(4-dimethylaminophenyl)-17α-(prop-1-ynyl)-Δ^4,9-estradiene-17β-ol-3-one] |  | 0% | 0% | 51% |  |
| CC#C[C@]1(O)CC[C@H]2[C@@H]3CCC4=C(CCC(=O)C4)[C@H]3[C@@H](c3cccc(OC)c3)C[C@@]21C [Example 6, 11β-(3-methoxyphenyl)-17α-(prop-1-ynyl)-Δ^5(10) -estrene-17β-ol-3-one] |  | 0% | 0% | 68% |  |
